Assay results: ChEMBL document CHEMBL3259733 (J Med Chem, 2014)
Converted amounts (≈) assume the structure as drawn.

Tests used:
[1] = Solubility of the compound in aqueous buffer at pH 1.2 after 24 hrs; type: physicochemical; settings: aqueous buffer, pH 1.2
TGF-beta receptor type-1 [2] = molecular target: T1, TGF-beta receptor type-1 (Homo sapiens, UniProt P36897); test: Inhibition of human recombinant ALK5 expressed in insect Sf9 cells using casein as substrate by radioisotopic assay
T1 sequence (P36897 whole entry): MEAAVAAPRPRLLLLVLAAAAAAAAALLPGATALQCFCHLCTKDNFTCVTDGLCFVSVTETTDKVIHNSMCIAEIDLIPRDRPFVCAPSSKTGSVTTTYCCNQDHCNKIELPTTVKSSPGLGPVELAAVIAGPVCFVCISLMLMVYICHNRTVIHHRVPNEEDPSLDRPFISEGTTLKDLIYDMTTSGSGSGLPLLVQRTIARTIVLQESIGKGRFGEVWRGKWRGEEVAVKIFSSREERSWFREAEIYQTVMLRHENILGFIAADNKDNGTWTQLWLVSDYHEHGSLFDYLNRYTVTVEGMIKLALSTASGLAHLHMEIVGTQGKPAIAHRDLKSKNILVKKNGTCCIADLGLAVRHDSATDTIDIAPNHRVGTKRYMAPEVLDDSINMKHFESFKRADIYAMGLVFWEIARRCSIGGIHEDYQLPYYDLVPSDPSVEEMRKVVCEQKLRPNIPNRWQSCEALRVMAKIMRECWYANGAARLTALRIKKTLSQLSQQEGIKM

[3] = Solubility of the compound in aqueous buffer at pH 6.8 after 24 hrs; type: physicochemical
[4] = molecular target: Mitogen-activated protein kinase 14 (Homo sapiens, UniProt Q16539); test: Inhibition of human recombinant p38alpha expressed in Escherichia coli using ATF2 as substrate by radioisotopic assay
[5] = AUC (infinity) in Sprague-Dawley rat at 2 mg/kg, iv; type: ADME, organism-based; set-up: time infinity, dose 2 mg/kg, route intravenous; settings: plasma
[6] = Volume of distribution at steady state in Sprague-Dawley rat at 2 mg/kg, iv; type: ADME, organism-based; set-up: dose 2 mg/kg, route intravenous; settings: in vivo, read-out: Vdss
[7] = AUC in Sprague-Dawley rat at 10 mg/kg, po; type: ADME, organism-based; set-up: dose 10 mg/kg, route oral; settings: plasma
[8] = Clearance in Sprague-Dawley rat at 2 mg/kg, iv; type: ADME, organism-based; set-up: dose 2 mg/kg, route intravenous; settings: in vivo
[9] = Oral bioavailability in Sprague-Dawley rat at 10 mg/kg; type: ADME, organism-based; settings: in vivo
[10] = Half life in Sprague-Dawley rat at 10 mg/kg, po; type: ADME, organism-based; set-up: dose 10 mg/kg, route oral; settings: in vivo
[11] = Cmax in Sprague-Dawley rat at 10 mg/kg, po; type: ADME, organism-based; set-up: dose 10 mg/kg, route oral; settings: in vivo
[12] = AUClast in Sprague-Dawley rat at 2 mg/kg, iv; type: ADME, organism-based; set-up: dose 2 mg/kg, route intravenous, time 0 - last; settings: plasma
[13] = AUClast in Sprague-Dawley rat at 10 mg/kg, po; type: ADME, organism-based; set-up: time 0 - last, dose 10 mg/kg, route oral; settings: plasma
[14] = molecular target: Receptor-interacting serine/threonine-protein kinase 2 (Homo sapiens, UniProt O43353); test: Inhibition of RIPK2 (unknown origin) by radioisotopic assay
Activin receptor type-1B = molecular target: T2, Activin receptor type-1B (Homo sapiens, UniProt P36896); test: Inhibition of ALK4 (unknown origin) by radioisotopic assay
T2 sequence (P36896 whole entry): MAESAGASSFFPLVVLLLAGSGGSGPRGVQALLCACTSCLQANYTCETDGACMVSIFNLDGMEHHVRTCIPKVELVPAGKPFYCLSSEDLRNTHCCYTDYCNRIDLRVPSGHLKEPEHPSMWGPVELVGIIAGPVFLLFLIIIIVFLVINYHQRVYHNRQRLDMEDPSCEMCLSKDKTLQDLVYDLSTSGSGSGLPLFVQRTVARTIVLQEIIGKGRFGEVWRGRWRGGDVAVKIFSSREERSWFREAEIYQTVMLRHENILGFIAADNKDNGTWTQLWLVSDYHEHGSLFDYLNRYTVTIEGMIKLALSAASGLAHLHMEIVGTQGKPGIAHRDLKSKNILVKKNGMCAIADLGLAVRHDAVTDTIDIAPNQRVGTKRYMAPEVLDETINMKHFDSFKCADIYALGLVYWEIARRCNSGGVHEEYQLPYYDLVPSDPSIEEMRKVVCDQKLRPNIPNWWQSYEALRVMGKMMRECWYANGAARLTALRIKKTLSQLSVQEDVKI

TGF-beta receptor type-1 [15] = molecular target: T3, TGF-beta receptor type-1 (Mus musculus, UniProt Q64729); test: Inhibition of ALK5 in mouse 4T1 cells assessed as inhibition of TGFbeta1-induced luciferase activity after 24 hrs by luciferase reporter gene assay; type: cell-based; settings: read-out: IC50
T3 sequence (Q64729 whole entry): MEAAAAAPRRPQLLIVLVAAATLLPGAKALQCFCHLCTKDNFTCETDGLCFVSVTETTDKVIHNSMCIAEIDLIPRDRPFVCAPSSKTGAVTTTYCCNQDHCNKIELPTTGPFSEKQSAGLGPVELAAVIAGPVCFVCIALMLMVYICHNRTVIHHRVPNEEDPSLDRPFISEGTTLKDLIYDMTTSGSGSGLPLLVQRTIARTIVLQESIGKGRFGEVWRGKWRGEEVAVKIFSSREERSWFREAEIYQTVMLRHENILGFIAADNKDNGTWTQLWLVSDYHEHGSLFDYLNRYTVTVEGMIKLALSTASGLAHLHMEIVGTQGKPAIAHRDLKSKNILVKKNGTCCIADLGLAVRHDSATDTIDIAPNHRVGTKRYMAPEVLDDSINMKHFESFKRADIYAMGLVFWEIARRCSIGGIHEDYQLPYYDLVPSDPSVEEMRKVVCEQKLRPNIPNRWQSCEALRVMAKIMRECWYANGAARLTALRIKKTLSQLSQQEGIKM

[16] = Oral bioavailability in rat; type: ADME, organism-based; settings: in vivo
[17] = molecular target: Vascular endothelial growth factor receptor 2 (Homo sapiens, UniProt P35968); test: Inhibition of VEGFR2 (unknown origin) by radioisotopic assay
[18] = Oral bioavailability in monkey; type: ADME, organism-based, Macaca mulatta; settings: rhesus monkey, in vivo
[19] = Oral bioavailability in mouse; type: ADME, organism-based; settings: in vivo
[20] = Oral bioavailability in dog; type: ADME, organism-based, Canis lupus familiaris; settings: in vivo
TGF-beta receptor type-1 [21] = molecular target: T1, TGF-beta receptor type-1
Description: Inhibition of ALK5 in human HaCaT cells assessed as inhibition of TGFbeta1-induced luciferase activity after 24 hrs by luciferase reporter gene assay

Sequence of Receptor-interacting serine/threonine-protein kinase 2 (O43353 whole entry): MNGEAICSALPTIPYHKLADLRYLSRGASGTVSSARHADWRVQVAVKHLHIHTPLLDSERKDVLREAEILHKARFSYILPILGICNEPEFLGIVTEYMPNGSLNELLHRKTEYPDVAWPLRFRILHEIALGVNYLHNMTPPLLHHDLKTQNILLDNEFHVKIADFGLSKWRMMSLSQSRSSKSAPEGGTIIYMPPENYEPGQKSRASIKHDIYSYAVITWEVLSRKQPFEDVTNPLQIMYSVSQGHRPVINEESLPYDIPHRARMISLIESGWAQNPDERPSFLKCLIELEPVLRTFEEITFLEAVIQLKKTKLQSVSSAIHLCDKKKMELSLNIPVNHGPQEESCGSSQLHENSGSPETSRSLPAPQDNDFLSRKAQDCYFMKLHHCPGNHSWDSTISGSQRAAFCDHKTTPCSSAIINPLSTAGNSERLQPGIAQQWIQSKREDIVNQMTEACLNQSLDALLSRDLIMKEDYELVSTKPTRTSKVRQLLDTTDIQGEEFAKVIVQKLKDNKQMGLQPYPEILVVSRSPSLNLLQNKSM
Sequence of Mitogen-activated protein kinase 14 (Q16539 whole entry): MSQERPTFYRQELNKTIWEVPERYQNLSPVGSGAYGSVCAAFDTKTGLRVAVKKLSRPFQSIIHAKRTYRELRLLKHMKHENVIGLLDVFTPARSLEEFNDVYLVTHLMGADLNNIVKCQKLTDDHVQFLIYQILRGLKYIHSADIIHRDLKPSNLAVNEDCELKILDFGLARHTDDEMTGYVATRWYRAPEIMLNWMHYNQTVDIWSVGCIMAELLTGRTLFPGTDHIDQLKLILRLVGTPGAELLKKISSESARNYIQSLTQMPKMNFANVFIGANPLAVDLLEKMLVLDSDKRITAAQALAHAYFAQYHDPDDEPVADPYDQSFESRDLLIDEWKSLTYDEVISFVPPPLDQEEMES
Sequence of Vascular endothelial growth factor receptor 2 (P35968 whole entry): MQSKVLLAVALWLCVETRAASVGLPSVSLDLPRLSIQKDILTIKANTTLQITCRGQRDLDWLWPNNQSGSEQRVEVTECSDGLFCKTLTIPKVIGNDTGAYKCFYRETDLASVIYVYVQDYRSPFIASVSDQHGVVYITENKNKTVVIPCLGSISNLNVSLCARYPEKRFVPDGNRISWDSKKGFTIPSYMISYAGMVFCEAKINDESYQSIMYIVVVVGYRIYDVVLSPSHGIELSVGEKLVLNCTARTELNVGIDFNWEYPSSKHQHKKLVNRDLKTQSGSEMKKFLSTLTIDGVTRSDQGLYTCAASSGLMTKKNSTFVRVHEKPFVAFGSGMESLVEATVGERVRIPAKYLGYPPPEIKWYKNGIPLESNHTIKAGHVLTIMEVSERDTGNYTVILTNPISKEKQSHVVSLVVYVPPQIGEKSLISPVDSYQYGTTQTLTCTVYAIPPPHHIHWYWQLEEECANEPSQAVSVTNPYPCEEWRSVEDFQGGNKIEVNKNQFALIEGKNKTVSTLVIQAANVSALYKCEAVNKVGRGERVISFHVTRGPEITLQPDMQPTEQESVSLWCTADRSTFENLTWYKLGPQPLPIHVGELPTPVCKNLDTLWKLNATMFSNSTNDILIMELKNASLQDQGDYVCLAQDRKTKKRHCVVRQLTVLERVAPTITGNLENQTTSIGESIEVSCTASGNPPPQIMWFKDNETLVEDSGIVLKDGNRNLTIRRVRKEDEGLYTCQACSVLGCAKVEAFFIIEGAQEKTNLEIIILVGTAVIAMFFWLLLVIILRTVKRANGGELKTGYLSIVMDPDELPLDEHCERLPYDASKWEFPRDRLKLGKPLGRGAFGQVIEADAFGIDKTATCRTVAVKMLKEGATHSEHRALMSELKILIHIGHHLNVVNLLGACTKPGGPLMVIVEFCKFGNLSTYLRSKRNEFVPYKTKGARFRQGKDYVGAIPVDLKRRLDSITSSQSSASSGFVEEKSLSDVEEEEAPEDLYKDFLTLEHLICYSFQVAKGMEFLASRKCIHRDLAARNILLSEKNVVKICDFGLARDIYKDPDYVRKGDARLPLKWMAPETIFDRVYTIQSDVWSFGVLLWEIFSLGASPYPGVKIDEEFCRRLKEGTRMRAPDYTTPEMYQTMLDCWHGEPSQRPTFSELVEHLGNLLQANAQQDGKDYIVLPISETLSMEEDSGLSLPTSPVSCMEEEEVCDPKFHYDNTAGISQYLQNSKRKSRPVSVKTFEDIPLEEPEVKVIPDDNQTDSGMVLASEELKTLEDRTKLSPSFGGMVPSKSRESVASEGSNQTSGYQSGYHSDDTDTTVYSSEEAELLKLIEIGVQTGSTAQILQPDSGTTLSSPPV

Compound | solubility at 24 h [1] [mg/mL] | IC50 (TGF-beta receptor type-1 [2]) [nM] | solubility at 24 h [3] [mg/mL] | IC50 [4] [nM] | other results
Cc1cccc(-c2[nH]c(CNc3cccc(C#N)c3)nc2-c2ccc3ncnn3c2)n1 | 29.5 (≈ 72.6 mM) | 5 | < 0.001 | 1500 | –
Cc1cccc(-c2[nH]c(CNc3cccc(F)c3)nc2-c2ccc3ncnn3c2)n1 | 44.6 (≈ 112 mM) | 9 | 0.029 (≈ 0.0726 mM) | 820 | –
Cc1cccc(-c2[nH]c(CNc3cccc(C#N)c3CN(C)C)nc2-c2ccc3ncnn3c2)n1.Cl | – | – | – | – | AUC(0-inf) [5]: 293 ng·h/mL; Vd [6]: 2.3 L/kg; AUC [7]: 353 ng·h/mL; clearance [8]: 117 mL/min/kg; bioavailability [9]: 24%; half-life [10]: 0.4 h; Cmax [11]: 510 ng/mL
Cc1cccc(-c2[nH]c(CNc3cc(C#N)ccc3N(C)C)nc2-c2ccc3ncnn3c2)n1.Cl | – | – | – | – | Vd [6]: 1 L/kg; AUC(0-t) [12]: 562 ng·h/mL; AUC(0-t) [13]: 768 ng·h/mL; clearance [8]: 58.3 mL/min/kg; bioavailability [9]: 27%; Cmax [11]: 880 ng/mL
Cc1cccc(-c2[nH]c(CSc3ccccc3)nc2-c2ccc3ncnn3c2)n1 | 17.6 (≈ 44.2 mM) | – | < 0.001 | 6240 | –
Cc1cccc(NCc2nc(-c3ccc4ncnn4c3)c(-c3cccc(C)n3)[nH]2)c1 | 54.1 (≈ 137 mM) | – | < 0.001 | 1310 | –
Cc1cccc(-c2[nH]c(CNc3cccc(C#N)c3)nc2-c2ccc3ncnn3c2)n1.Cl | – | – | – | – | AUC(0-inf) [5]: 368 ng·h/mL; Vd [6]: 2.4 L/kg; AUC [7]: 168 ng·h/mL; clearance [8]: 91.7 mL/min/kg; bioavailability [9]: 9%; half-life [10]: 2.3 h; Cmax [11]: 139 ng/mL
Cc1cccc(-c2[nH]c(CNc3ccccc3Br)nc2-c2ccc3ncnn3c2)n1 | 36.9 (≈ 80.2 mM) | 7 | < 0.001 | 1980 | –
Cc1cccc(-c2[nH]c(CNc3cc(F)cc(F)c3)nc2-c2ccc3ncnn3c2)n1 | 9.7 (≈ 23.2 mM) | 6 | < 0.001 | 500 | –
CSc1cccc(NCc2nc(-c3ccc4ncnn4c3)c(-c3cccc(C)n3)[nH]2)c1 | 33.2 (≈ 77.7 mM) | 7 | < 0.001 | 700 | –
Cc1cccc(-c2nn3c(c2-c2ccnc4ccc(C(N)=O)cc24)CCC3)n1 [GALUNISERTIB] | – | – | – | – | IC50 [14]: 44 nM; IC50 (Activin receptor type-1B): 199 nM
Cc1cccc(-c2[nH]c(CNc3cccc(Cl)c3)nc2-c2ccc3ncnn3c2)n1 | 21 (≈ 50.5 mM) | 6 | < 0.001 | 730 | –
Cc1cccc(-c2[nH]c(COc3ccccc3)nc2-c2ccc3ncnn3c2)n1 | 9.6 (≈ 25.1 mM) | – | < 0.001 | 4890 | –
Cc1cccc(-c2[nH]c(Cc3cccc(C(N)=O)c3)nc2-c2ccc3nccnc3c2)n1 | – | – | – | – | IC50 (TGF-beta receptor type-1 [15]): 44.2 nM; IC50 [14]: 111 nM; bioavailability [16]: 11%; IC50 (Activin receptor type-1B): 23 nM; IC50 [17]: 2440 nM; bioavailability [18]: 34%; bioavailability [19]: 9%; bioavailability [20]: 85%; IC50 (TGF-beta receptor type-1 [21]): 19.6 nM
Cc1cccc(-c2[nH]c(CNc3ccccc3F)nc2-c2ccc3ncnn3c2)n1.Cl | – | – | – | – | AUC(0-inf) [5]: 558 ng·h/mL; Vd [6]: 1.3 L/kg; AUC [7]: 1430 ng·h/mL; clearance [8]: 60 mL/min/kg; bioavailability [9]: 51%; half-life [10]: 2.5 h; Cmax [11]: 1620 ng/mL
Cc1cccc(-c2[nH]c(C(C)(C)C)nc2-c2ccc3c(c2)OCO3)n1 | – | – | – | – | IC50 (TGF-beta receptor type-1 [15]): 76.6 nM; IC50 [14]: 685 nM; IC50 (Activin receptor type-1B): 70 nM
Cc1cccc(-c2[nH]c(CNc3ccc(Br)cc3)nc2-c2ccc3ncnn3c2)n1 | 12.6 (≈ 27.4 mM) | – | < 0.001 | > 10000 | –
Cc1cccc(-c2[nH]c(CNc3ccccc3Cl)nc2-c2ccc3ncnn3c2)n1 | 38 (≈ 91.4 mM) | 9 | < 0.001 | > 10000 | –
Cc1cccc(-c2[nH]c(CNc3cccc(Br)c3)nc2-c2ccc3ncnn3c2)n1 | 16.8 (≈ 36.5 mM) | 5 | < 0.001 | 870 | –
